Experiment [1] has as its system VEGF-induced angiogenesis. The experiment can be described thus: VEGF-induced angiogenesis in a rabbit eye model. Format: in vivo. How it is done: FIG. 2. Inhibition of angiogenesis by compound 18 in a dose-dependent manner—Effect on VEGF-induced angiogenesis in a rabbit eye model. (A) Study design. To evaluate the impact of compound 18, 10 μg of VEGF in each eye is administered as an intravitreal injection. In this study, the activity of compound 18 is evaluated in a concentration escalation manner from 0.125 to 0.5 mg given as a single dosage. A formulation of compound 18 where the dosage is admixed in a total of 50 μL, was administered immediately after VEGF administration. (B) Results.
FIG. 3. Comparison of compound 18 with bevacizumab (Avastin)—Effect on VEGF-induced angiogenesis in a rabbit eye model. The potency of compound 18 was compared with bevacizumab. (A) Study design. Using a VEGF-induction eye model, where 10 μg of VEGF is injected as an intravitreal administration. One dose of 0.5 mg of compound 18 was compared with 1.25 mg bevacizumab after VEGF induction. (B) Results. […] On Day 7, retinal edema and angiogenesis between the two treatment groups were similar.
(§1) Compound 18 was prepared using methods known in the art. (For example, see U.S. Pat. Nos. 8,115,023, and 7,683,193). […] (FIG. 3). On Day 7, retinal edema and angiogenesis between the two treatment groups were similar.

The next experiment relates to VEGF receptor 2. The experiment can be described thus: RT-PCR of CNV lesions after treatment: VEGF receptor 2. Format: in vivo. On the procedure:
(§2) FIG. 7. RT-PCR Data of CNV after treatment. Reduced expression of pro-angiogenic and pro-inflammatory proteins upon treatment with compound 18.
as §1

Experiment [2] has as its system human mammary endothelial cells (HMEC). The experiment in a line: tube formation assay (HMEC cultured in Geltrex). In kind it is cell-based. The following applies: 24 hours, concentration escalation, at greater than 100 nM, compared to untreated or no Geltrex. How it is done: FIG. 1. Inhibition of angiogenesis by compound 18 in a dose-dependent manner—Effect on tube formation. The effect of Compound 18 was evaluated using tube formation assay using a concentration escalation design.
as §1

The subject of the next experiment is cyclooxygenase-2 (COX-2). The experiment can be described thus: RT-PCR of CNV lesions after treatment: COX-2. In kind it is in vivo. On the procedure: as §2, §1
A further experiment has as its system CNV lesions. The experiment can be described thus: choroidal neovascularization (CNV) model of age-related macular degeneration (AMD), laser induced lesions supplemented with VEGF. In kind it is in vivo. The following applies: for CNV lesion number: week 4 of therapy, vs vehicle control; for vessels and edema in the CNV lesions (retinal angiography): by week 4, vs vehicle. How it is done: FIG. 4. Effect of compound 18 in a choroidal neovascularization (CNV) model of age-related macular degeneration (AMD). (A) Study Design: Simultaneous treatment model. Choroidal neovascularization (CNV) model, was used to determine its effect on new blood vessel formation. In this figure, laser induced lesions were further supplemented with 10 μg VEGF intravitreal administration every two weeks. Laser induced AMD lesions penetrated the Bruch's membrane. CNV lesions were treated with 0.5 mg compound 18 administered weekly, where first dosage was given at the time of CNV lesion formation. (B) Results.
FIG. 5. Effect of compound 18 in a choroidal neovascularization (CNV) model of age-related macular degeneration (AMD) A) Study Design: Sequential treatment model. CNV model was used to determine compound 18's effect on new blood vessel formation. Laser induced lesions were supplemented with 10 μg VEGF intravitreal administration every two weeks. CNV lesions were treated with 0.5 mg compound 18 administered weekly, were given one week after CNV lesion formation. (B) Results.
FIG. 6. Quantification of the Lesion Number and Mean Area. CNV lesions were enumerated at baseline, 2 and 4 weeks after CNV lesion formation. (A) Lesion Number. […] (B) Mean Area.
FIG. 8. Optical Coherence Tomography (OCT) of CNV Lesions Over Time. OCT was used to evaluate CNV lesion healing after compound 18 treatment.
FIG. 9. Confocal Scanning Fluorescent Microscope of CNV Lesions. Confocal scanning fluorescent microscopy is used to visualize the level of neovascular growth. In the vehicle treated lesions (Left), extensive neovascular growth is noted after one month.
FIG. 10. Confocal Scanning Electron Microscopy of CNV lesions treated with vehicle (Left) was compared with compound 18 treatment (Right).
as §1

Setting [3] is: Day 7, 10 μg VEGF intravitreal, one dose.

“Also recorded” adds a separate entry of the source.

As for `CCCCC[C@@H](O)/C=C/c1cccc(/C=C/[C@@H](O)[C@@H](O)CCCC(=O)OC)c1` [Compound 18], the “activity profile vs Avastin” value in experiment [1] (0.5 mg compound 18 vs 1.25 mg Avastin, Day 3 and Day 7 findings) was “comparable or improved activity profile vs Avastin”. Moreover, the “retinal edema and angiogenesis, 0.5 mg compound 18 compared to 1.25 mg bevacizumab” value in experiment [1] (Day 3, 10 μg VEGF intravitreal, one dose) was “significantly lower retinal edema and angiogenesis”. Also, the “retinal edema and angiogenesis between the two treatment groups (0.5 mg compound 18 vs 1.25 mg bevacizumab)” value in experiment [1] (setting [3]) is listed as “similar”. For the same molecule, in experiment [1] (Day 7, 10 μg VEGF intravitreal, single dose, doses >0.25 mg (0.125 to 0.5 mg tested)), the “level of retinal edema and angiogenesis vs vehicle” value is listed as “significantly reduced”. Also, the “expression of VEGF receptor 2 (RT-PCR)” value in the experiment on VEGF receptor 2 (sequential (SQ) treatment) and in the experiment on VEGF receptor 2 (simultaneous (SM) treatment) was “significantly reduced the expression” each time. In addition, the “inhibition of tube formation (angiogenesis)” value in experiment [2] is “able to inhibit angiogenesis in a dose-response manner; also recorded: notable inhibition of tube formation”. Moreover, the “expression of cyclooxygenase-2 (COX-2) (RT-PCR)” value in the experiment on cyclooxygenase-2 (COX-2) (sequential (SQ) treatment) and in the experiment with cyclooxygenase-2 (COX-2) (simultaneous (SM) treatment) was “significantly reduced the expression” in each case. In the experiment with CNV lesions (after one month, vs vehicle treated lesions), the “neovascular growth in CNV lesions (confocal scanning fluorescent microscopy)” value is given as “significant reduction in neovascular growth”. In addition, the “CNV lesion healing by Optical Coherence Tomography (OCT)” value in the experiment on CNV lesions (same lesion evaluated at 2 weeks and 4 weeks) is on record as “able to promote healing of a lesion”. Besides, the “mean CNV area” value with CNV lesions (sequential (SQ) treatment) and in the experiment with CNV lesions (simultaneous (SM) treatment) was “reduction in the mean CNV area” each time. Besides, the CNV lesion number entry in the experiment with CNV lesions (sequential (SQ) treatment) and in the experiment on CNV lesions (simultaneous (SM) treatment) was “significantly reduced CNV lesion” throughout. Moreover, the “vessels and edema in the CNV lesions (retinal angiography)” value with CNV lesions (sequential treatment model, 0.5 mg weekly starting one week after lesion formation) was “statistically significant reduction in the vessels and edema”; with CNV lesions (simultaneous treatment model, 0.5 mg weekly from time of lesion formation) it was “statistically significant reduction in the vessels and edema”. Besides, the “morphology of CNV lesions (Confocal Scanning Electron Microscopy)” value with CNV lesions (vs vehicle (neovascular growth penetrating the Bruch's membrane)) is given as “thin-walled fenestrated vascular channels with flat configuration”.

Take “bevacizumab: FDA-approved anti-VEGF antibody injected intravitreally [reference compound]”: the “retinal edema and angiogenesis between the two treatment groups (0.5 mg compound 18 vs 1.25 mg bevacizumab)” value in experiment [1] (setting [3]) was “similar”.

The values above are taken from patent US11058659B2, “Methods and compositions for the treatment of ophalmic diseases and disorders” (UNIVERSITY OF SOUTHERN CALIFORNIA, priority 2013, dated 2021).
